Experimental data published in patent US20260347373A1, “HETEROCYCLIC COMPOUNDS, COMPOSITIONS THEREOF, AND METHODS OF TREATMENT THEREWITH” (BeOne Medicines I GmbH, priority 2023, published 2026).
Where a name gives a salt, the structure may show the parent alone. Read-outs that look alike come from different tables or passages of the source.

What was measured:
KRAS G12D = KRAS G12D (Homo sapiens, UniProt P01116, G12D); assay: KRAS G12D Probe Displacement Assay (TR-FRET, GDP-loaded); format: binding
KRAS G12D, sequence (P01116 1-188 isoform P01116-2 G12D): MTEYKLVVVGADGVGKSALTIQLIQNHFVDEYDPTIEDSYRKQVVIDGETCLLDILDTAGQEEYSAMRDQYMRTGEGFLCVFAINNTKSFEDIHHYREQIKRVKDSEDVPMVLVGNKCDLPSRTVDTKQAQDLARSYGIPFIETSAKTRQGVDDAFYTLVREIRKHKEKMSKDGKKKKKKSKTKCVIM
Source text: (§1) The synthetic routes of probe 1 and 2, which have been disclosed in PCT/CN2022/070676, are hereby incorporated herein.

WT KRAS = WT KRAS (Homo sapiens, UniProt P01116); assay: KRAS WT Probe Displacement Assay (TR-FRET, GDP-loaded); format: binding
WT KRAS, sequence (P01116 1-188 isoform P01116-2): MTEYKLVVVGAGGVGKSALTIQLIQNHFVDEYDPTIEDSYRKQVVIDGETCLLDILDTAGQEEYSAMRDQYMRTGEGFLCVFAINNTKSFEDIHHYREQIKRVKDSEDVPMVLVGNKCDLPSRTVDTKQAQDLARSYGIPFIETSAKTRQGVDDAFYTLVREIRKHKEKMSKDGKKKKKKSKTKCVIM
Source text: as §1

[1] = KRAS^G12D Probe Displacement Assay IC50, KRAS G12D
[2] = KRAS^WT Probe Displacement Assay IC50, KRAS WT
[3] = KRAS G12D, read-out: KRAS^G12D Probe Displacement Assay IC50
[4] = KRAS WT, read-out: KRAS^WT Probe Displacement Assay IC50

Compound | IC50 (KRAS G12D; [1]) [nM] | IC50 (WT KRAS; [2]) [nM] | IC50 (KRAS G12D; [3]) [nM] | IC50 (WT KRAS; [4]) [nM]
Cc1cc(N)cc(-c2nc3c4c(nc(OCC5(CN6CCC(F)(F)C6)CC5)nc4c2F)N2C[C@H]4CC[C@H](N4)[C@H]2CCO3)c1C(F)(F)F [Example 89, 3-((6aR,7S,10R)-13-((1-((3,3-difluoropyrrolidin-1-yl)methyl)cyclopropyl)methoxy)-1-fluoro-5,6,6a,7,8,9,10,11-octahydro-4-oxa-3,11a,12,14,15-pentaaza-7,10-methanocyclohepta [4,5]cycloocta [1,2,3-de]naphthalen-2-yl)-5-methyl-4-(trifluoromethyl) aniline] | < 0.3 | 3 to 1000 |  | 
Cc1cc(N)cc(-c2nc3c4c(nc(OCC5(CN6CCC(C(F)(F)F)C6)CC5)nc4c2F)N2C[C@H]4CC[C@H](N4)[C@H]2CCO3)c1C(F)(F)F (stereo partly drawn) [Example 91, 3-((6aR,7S,10R)-1-fluoro-13-((1-((3-(trifluoromethyl)pyrrolidin-1-yl)methyl)cyclopropyl)methoxy)-5,6,6a,7,8,9,10,11-octahydro-4-oxa-3,11a,12,14,15-pentaaza-7,10-methanocyclohepta [4,5]cycloocta [1,2,3-de]naphthalen-2-yl)-5-methyl-4-(trifluoromethyl)aniline] |  |  | < 0.3 | 3 to 1000
Cc1cc(N)cc(-c2nc3c4c(nc(OCC5(CN6CCC(C)(O)C6)CC5)nc4c2F)N2C[C@H]4CC[C@H](N4)[C@H]2CCO3)c1C(F)(F)F (stereo partly drawn) [Example 93, 1-((1-((((6aR,7S, 10R)-2-(5-amino-3-methyl-2-(trifluoromethyl)phenyl)-1-fluoro-5,6,6a,7,8,9,10,11-octahydro-4-oxa-3,11a,12,14,15-pentaaza-7,10-methanocyclohepta [4,5]cycloocta[1,2,3-de]naphthalen-13-yl)oxy)methyl)cyclopropyl)methyl)-3-methylpyrrolidin-3-ol] |  |  | < 0.3 | 3 to 1000
Cc1cc(N)cc(-c2nc3c4c(nc(OCC5(CN6C[C@H]7C[C@H]7[C@@H]6CO)CC5)nc4c2F)N2C[C@H]4CC[C@H](N4)[C@H]2CCO3)c1C(F)(F)F [Example 96, ((1R,2R,5S)-3-((1-((((6aR,7S,10R)-2-(5-amino-3-methyl-2-(trifluoromethyl)phenyl)-1-fluoro-5,6,6a,7,8,9,10,11-octahydro-4-oxa-3,11a,12,14,15-pentaaza-7,10-methanocyclohepta [4,5]cycloocta[1,2,3-de]naphthalen-13-yl)oxy)methyl)cyclopropyl)methyl)-3-azabicyclo [3.1.0]hexan-2-yl) methanol] |  |  | < 0.3 | 3 to 1000
Cc1cc(N)cc(-c2nc3c4c(nc(OCC5(CN6C[C@@H]7C[C@@H]7[C@H]6CO)CC5)nc4c2F)N2C[C@H]4CC[C@H](N4)[C@H]2CCO3)c1C(F)(F)F [Example 97, ((1S,2S,5R)-3-((1-((((6aR,7S,10R)-2-(5-amino-3-methyl-2-(trifluoromethyl)phenyl)-1-fluoro-5,6,6a,7,8,9,10,11-octahydro-4-oxa-3,11a,12,14,15-pentaaza-7,10-methanocyclohepta [4,5]cycloocta,[1,2,3-de]naphthalen-13-yl)oxy)methyl)cyclopropyl)methyl)-3-azabicyclo [3.1.0]hexan-2-yl) methanol] |  |  | < 0.3 | 3 to 1000
Cc1cc(N)cc(-c2nc3c4c(nc(OCC5(CN6C[C@H]7C[C@H]7[C@H]6CO)CC5)nc4c2F)N2C[C@H]4CC[C@H](N4)[C@H]2CCO3)c1C(F)(F)F [Example 98, ((1R,2S,5S)-3-((1-((((6aR,7S,10R)-2-(5-amino-3-methyl-2-(trifluoromethyl)phenyl)-1-fluoro-5,6,6a,7,8,9,10,11-octahydro-4-oxa-3,11a,12,14,15-pentaaza-7,10-methanocyclohepta [4,5]cycloocta[1,2,3-de]naphthalen-13-yl)oxy)methyl)cyclopropyl)methyl)-3-azabicyclo [3.1.0]hexan-2-yl) methanol] |  |  | < 0.3 | 3 to 1000
Cc1cc(N)cc(-c2nc3c4c(nc(OCC5(CN6C[C@H]7COC[C@H]7C6)CC5)nc4c2F)N2C[C@H]4CC[C@H](N4)[C@H]2CCO3)c1C(F)(F)F [Example 100, 3-((6aR,7S,10R)-1-fluoro-13-((1-(((3aR,6aS)-tetrahydro-1H-furo[3,4-c]pyrrol-5(3H)-yl)methyl)cyclopropyl)methoxy)-5,6,6a,7,8,9,10,11-octahydro-4-oxa-3,11a,12,14,15-pentaaza-7,10-methanocyclohepta [4,5]cycloocta [1,2,3-de]naphthalen-2-yl)-5-methyl-4-(trifluoromethyl) aniline] | < 0.3 | 0.3 to 3 |  | 
Cc1cc(N)cc(-c2nc3c4c(nc(OCC5(CN6CCC7(CCOCC7)C6)CC5)nc4c2F)N2C[C@H]4CC[C@H](N4)[C@H]2CCO3)c1C(F)(F)F [Example 101, 3-((6aR,7S,10R)-13-((1-((8-oxa-2-azaspiro[4.5]decan-2-yl)methyl)cyclopropyl)methoxy)-1-fluoro-5,6,6a, 7,8,9,10,11-octahydro-4-oxa-3,11a,12,14,15-pentaaza[7,10]methanocyclohepta [4,5]cycloocta[1,2,3-de]naphthalen-2-yl)-5-methyl-4-(trifluoromethyl) aniline formate] | < 0.3 | 3 to 1000 |  | 
Cc1cc(N)cc(-c2nc3c4c(nc(OCC5(CN6CCC7(CC6)COC7)CC5)nc4c2F)N2C[C@H]4CC[C@H](N4)[C@H]2CCO3)c1C(F)(F)F [Example 102, 3-((6aR,7S,10R)-13-((1-((2-oxa-7-azaspiro[3.5]nonan-7-yl)methyl)cyclopropyl)methoxy)-1-fluoro-5,6,6a,7,8,9,10,11-octahydro-4-oxa-3,11a,12,14,15-pentaaza[7,10]methanocyclohepta [4,5]cycloocta [1,2,3-de]naphthalen-2-yl)-5-methyl-4-(trifluoromethyl)aniline] |  |  | < 0.3 | 0.3 to 3
Cc1cc(N)cc(-c2nc3c4c(nc(OCC5(CN6CCCOCC6)CC5)nc4c2F)N2C[C@H]4CC[C@H](N4)[C@H]2CCO3)c1C(F)(F)F [Example 103, 3-((6aR,7S,10R)-13-- ((1-((1,4-oxazepan-4-yl)methyl)cyclopropyl)methoxy)-1-fluoro-5,6,6a,7,8,9,10,11-octahydro-4-oxa-3,11a, 12,14,15-pentaaza-7,10-methanocyclohepta [4,5]cycloocta [1,2,3-de]naphthalen-2-yl)-5-methyl-4-(trifluoromethyl)aniline] |  |  | < 0.3 | 3 to 1000
Cc1cc(N)cc(-c2nc3c4c(nc(OCC5(CN6C7COCC6C7)CC5)nc4c2F)N2C[C@H]4CC[C@H](N4)[C@H]2CCO3)c1C(F)(F)F [Example 104, 3-((6aR,7S,10R)-13-((1-((3-oxa-6-azabicyclo[3.1.1]heptan-6-yl)methyl)cyclopropyl)methoxy)-1-fluoro-5,6,6a,7,8,9,10,11-octahydro-4-oxa-3,11a,12,14,15-pentaaza-7,10-methanocyclohepta [4,5]cycloocta [1,2,3-de]naphthalen-2-yl)-5-methyl-4-(trifluoromethyl) aniline formate] | < 0.3 | 3 to 1000 |  | 
Cc1cc(N)cc(-c2nc3c4c(nc(OCC5(CN6CC7CC(C6)O7)CC5)nc4c2F)N2C[C@H]4CC[C@H](N4)[C@H]2CCO3)c1C(F)(F)F [Example 105, 3-((6aR,7S,10R)-13-((1-((6-oxa-3-azabicyclo [3.1.1]heptan-3-yl)methyl)cyclopropyl)methoxy)-1-fluoro-5,6,6a,7,8,9,10,11-octahydro-4-oxa-3,11a,12,14,15-pentaaza-7,10-methanocyclohepta [4,5]cycloocta [1,2,3-de]naphthalen-2-yl)-5-methyl-4-(trifluoromethyl)aniline] |  |  | < 0.3 | 0.3 to 3
Cc1cc(N)cc(-c2nc3c4c(nc(OCC5(CN6C[C@H]7CC[C@@H](C6)O7)CC5)nc4c2F)N2C[C@H]4CC[C@H](N4)[C@H]2CCO3)c1C(F)(F)F [Example 106, 3-((6aR,7S,10R)-13-((1-(((1R,5S)-8-oxa-3-azabicyclo [3.2.1]octan-3-yl)methyl)cyclopropyl)methoxy)-1-fluoro-5,6,6a, 7,8,9,10,11-octahydro-4-oxa-3,11a,12,14,15-pentaaza-7,10-methanocyclohepta [4,5]cycloocta [1,2,3-de]naphthalen-2-yl)-5-methyl-4-(trifluoromethyl)aniline] |  |  | < 0.3 | 3 to 1000
Cc1cc(N)cc(-c2nc3c4c(nc(OCC5(CN6[C@@H]7CC[C@H]6COC7)CC5)nc4c2F)N2C[C@H]4CC[C@H](N4)[C@H]2CCO3)c1C(F)(F)F [Example 107, 3-((6aR,7S,10R)-13-((1-(((1R,5S)-3-oxa-8-azabicyclo [3.2.1]octan-8-yl)methyl)cyclopropyl)methoxy)-1-fluoro-5,6,6a,7,8,9,10,11-octahydro-4-oxa-3,11a,12,14,15-pentaaza-7,10-methanocyclohepta [4,5]cycloocta [1,2,3-de]naphthalen-2-yl)-5-methyl-4-(trifluoromethyl)aniline] |  |  | < 0.3 | 3 to 1000
Cc1cc(N)cc(-c2nc3c4c(nc(OCC5(CN6CCn7cncc7C6)CC5)nc4c2F)N2C[C@H]4CC[C@H](N4)[C@H]2CCO3)c1C(F)(F)F [Example 108, 3-((6aR,7S,10R)-13-((1-((5,6-dihydroimidazo [1,5-a]pyrazin-7(8H)-yl)methyl)cyclopropyl)methoxy)-1-fluoro-5,6,6a,7,8,9, 10,11-octahydro-4-oxa-3,11a,12,14,15-pentaaza-7,10-methanocyclohepta [4,5]cycloocta [1,2,3-de]naphthalen-2-yl)-5-methyl-4-(trifluoromethyl)aniline] |  |  | 0.3 to 3 | 3 to 1000
COC1CCN(CC2(COc3nc4c5c(nc(-c6cc(N)cc(C)c6C(F)(F)F)c(F)c5n3)OCC[C@@H]3[C@@H]5CC[C@H](CN43)N5)CC2)CC1 [Example 110, 3-((6aR,7S,10R)-1-fluoro-13-((1-((4-methoxypiperidin-1-yl)methyl)cyclopropyl)methoxy)-5,6,6a,7,8,9,10,11-octahydro-4-oxa-3,11a,12,14,15-pentaaza-7,10-methanocyclohepta[4,5]cycloocta[1,2,3-de]naphthalen-2-yl)-5-methyl-4-(trifluoromethyl)aniline] |  |  | < 0.3 | 3 to 1000
